From ChEMBL document CHEMBL1201862, “PubChem BioAssay data set” (2004)
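Grown in 96-well plates, cells were treated for 48 hours with each compound at five concentrations. Insufficient inhibition: endpoint recorded as highest concentration tested. GI50 marks 50% less growth.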 The source made the active and inactive calls. Cut-off read from the data, not from the text of the source: active = GI50 up to about 1.1 µM and inactive = higher.

Columns and labels:
Assay in all cases: inhibition of tumour cell growth, NCI panel, 48 h
[1] = tested on: A498
[2] = tested on: A549
[3] = tested on: EKVX
[4] = tested on: HCC 2998
[5] = tested on: K562
[6] = tested on: NCI-H23
[7] = tested on: OVCAR-5
[8] = tested on: RXF 393
[9] = tested on: SF-268
[10] = tested on: SF-295
[11] = tested on: SK-MEL-5
[12] = tested on: SK-OV-3
[13] = tested on: SNB-19
[14] = tested on: TK-10
[15] = tested on: UACC-62
[16] = tested on: UO-31

Measured: GI50

CCOc1ccc(OCC(=O)O)c2c1CCCC2=O
inactive: [1] > 100 µM | [2] > 100 µM | [3] > 100 µM | [4] > 100 µM | [5] > 10 µM | [6] > 100 µM | [7] > 100 µM | [8] > 100 µM | [9] > 100 µM | [10] > 100 µM | [11] > 100 µM | [12] > 100 µM | [13] > 100 µM | [14] > 100 µM | [15] > 100 µM | [16] > 100 µM

N=C(N)NCCCC(NCc1c2ccccc2[n+]([O-])c2ccccc12)C(=O)O (configuration not stated)
inactive: [1] 98.4 µM | [2] > 100 µM | [3] > 100 µM | [4] 74.5 µM | [5] 29.7 µM | [6] 42.2 µM | [7] > 100 µM | [9] 33.8 µM | [10] > 100 µM | [11] 36.4 µM | [12] > 100 µM | [13] 55.6 µM | [14] > 100 µM | [15] 54.8 µM | [16] 23.6 µM

CC(C)=CCC/C(C)=C/Cc1c(O)ccc2c1[nH]c1cc(O)c(C)cc12
inactive: [2] 8.87 µM | [4] 11 µM | [5] 9.38 µM | [7] > 25 µM | [8] 14 µM | [9] 10.7 µM | [11] 16.6 µM | [12] 24.2 µM | [13] 9.46 µM | [14] > 25 µM | [15] 16.9 µM | [16] 7.73 µM

Cc1nc(-c2ccccc2)cc2c1c(=O)oc1ccccc12
inactive: [2] > 100 µM | [3] > 100 µM | [4] > 100 µM | [5] > 100 µM | [6] > 100 µM | [7] > 100 µM | [8] > 100 µM | [9] > 100 µM | [10] > 100 µM | [11] > 100 µM | [12] > 100 µM | [13] > 100 µM | [15] 46.8 µM | [16] > 100 µM

Cc1nc(C(=O)O)c2ccccc2n1
inactive: [1] > 100 µM | [2] > 100 µM | [4] > 100 µM | [5] > 100 µM | [6] > 100 µM | [7] > 100 µM | [8] > 100 µM | [9] > 100 µM | [10] > 100 µM | [11] > 100 µM | [12] > 100 µM | [13] > 100 µM | [14] > 100 µM | [15] > 100 µM | [16] > 100 µM

CC/C=C/c1cc2c(c3[nH]ccc13)[C@@H](C)CC2C.CC/C=C/c1cc2cc[nH]c2c2c1C(C)C[C@@H]2C.CCc1cc2c(c3[nH]ccc13)[C@@H](C)CC2C (some centres not stated)
inactive: [2] 21.4 µM | [3] 18.4 µM | [4] 3.08 µM | [6] 17.4 µM | [7] 19.9 µM | [8] 12.2 µM | [9] 15.5 µM | [10] 16.6 µM | [13] 19.2 µM | [14] 22.1 µM | [16] 16.6 µM

CCCNC(=O)c1cc2ccccc2cc1C(=O)OC
inactive: [1] > 100 µM | [2] > 100 µM | [3] > 100 µM | [4] > 100 µM | [5] > 100 µM | [6] > 100 µM | [7] > 100 µM | [9] > 100 µM | [10] > 100 µM | [11] > 100 µM | [12] > 100 µM | [13] > 100 µM | [14] > 100 µM | [15] > 100 µM | [16] 58.5 µM

CCCCCCCC(=O)OCC1OC(n2cc(F)c(=O)[nH]c2=O)C(N)C(OC(=O)CCCCCCC)C1O (configuration not stated)
inactive: [1] 20.3 µM | [2] 18.3 µM | [3] 19.1 µM | [4] 16.5 µM | [6] 20.1 µM | [8] 18 µM | [9] 18.5 µM | [10] 17.5 µM | [11] 10.5 µM | [12] 28.8 µM | [13] 17.5 µM | [14] 23.4 µM | [15] 17.8 µM | [16] 19.5 µM

Nn1c(-c2ccccc2Cl)nc2ccccc2c1=O
inactive: [1] > 100 µM | [2] > 100 µM | [3] > 100 µM | [4] > 100 µM | [5] > 100 µM | [6] > 100 µM | [7] > 100 µM | [9] > 100 µM | [10] > 100 µM | [11] > 100 µM | [12] > 100 µM | [13] > 100 µM | [14] > 100 µM | [15] > 100 µM | [16] > 100 µM

CCCCOC(=O)NC(=O)c1cn(CCCOC(=O)CCCCCCCCC(=O)OCCCn2cc(C(=O)NC(=O)OCCCC)c(=O)n(C)c2=O)c(=O)n(C)c1=O
inactive: [1] > 100 µM | [2] > 100 µM | [3] > 100 µM | [4] > 100 µM | [5] > 100 µM | [6] > 100 µM | [7] > 100 µM | [8] > 100 µM | [9] > 100 µM | [10] > 100 µM | [11] > 100 µM | [13] > 100 µM | [14] > 100 µM | [15] > 100 µM | [16] > 100 µM
